Results: US8815872B2, “Macrocyclics pyrimidines as aurora kinase inhibitors” (Merck Patent GmbH, priority 2008, dated 2014)

Assays:
Assay in all cases: Other kinases, single-concentration inhibition (Table 3)
Format in all cases: biochemical
TrkB(h) = target: T1, TrkB(h) (Homo sapiens, UniProt Q16620)
T1 construct: purchased Caliper Life Sciences
In short: (§1)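 Kinase + cpd (single conc.) → add fluorescent peptide/ATP → 90 min, 25 °C → stop with EDTA/HEPES pH 7.5 → microfluidic separation of product vs substrate. % inhibition vs uninhibited and no-ATP controls.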

ZIPK(h) = target: T2, ZIPK(h) (Homo sapiens, UniProt O43293)
T2 construct: purchased Caliper Life Sciences
In short: as §1

CDK2/cyclinE(h) = target: T3, CDK2/cyclinE(h) (Homo sapiens, UniProt P24941)
T3 construct: purchased Caliper Life Sciences
In short: as §1

Aurora-A(h) = target: T4, Aurora-A(h) (Homo sapiens, UniProt O14965)
T4 construct: purchased Caliper Life Sciences
T4 sequence (O14965 1-403): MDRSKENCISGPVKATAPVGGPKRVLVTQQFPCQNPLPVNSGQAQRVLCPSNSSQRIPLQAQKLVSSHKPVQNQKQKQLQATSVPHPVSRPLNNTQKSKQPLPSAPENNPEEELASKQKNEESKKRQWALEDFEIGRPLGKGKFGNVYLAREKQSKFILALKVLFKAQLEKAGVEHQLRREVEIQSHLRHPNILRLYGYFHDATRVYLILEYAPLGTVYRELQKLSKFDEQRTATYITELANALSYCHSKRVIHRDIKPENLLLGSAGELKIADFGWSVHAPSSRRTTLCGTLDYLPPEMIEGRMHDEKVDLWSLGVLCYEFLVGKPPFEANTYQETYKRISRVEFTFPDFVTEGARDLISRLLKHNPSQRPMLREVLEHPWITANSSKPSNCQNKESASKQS
In short: as §1

ZAP-70(h) = target: T5, ZAP-70(h) (Homo sapiens, UniProt P43403)
T5 construct: purchased Caliper Life Sciences
T5 sequence (P43403 1-619): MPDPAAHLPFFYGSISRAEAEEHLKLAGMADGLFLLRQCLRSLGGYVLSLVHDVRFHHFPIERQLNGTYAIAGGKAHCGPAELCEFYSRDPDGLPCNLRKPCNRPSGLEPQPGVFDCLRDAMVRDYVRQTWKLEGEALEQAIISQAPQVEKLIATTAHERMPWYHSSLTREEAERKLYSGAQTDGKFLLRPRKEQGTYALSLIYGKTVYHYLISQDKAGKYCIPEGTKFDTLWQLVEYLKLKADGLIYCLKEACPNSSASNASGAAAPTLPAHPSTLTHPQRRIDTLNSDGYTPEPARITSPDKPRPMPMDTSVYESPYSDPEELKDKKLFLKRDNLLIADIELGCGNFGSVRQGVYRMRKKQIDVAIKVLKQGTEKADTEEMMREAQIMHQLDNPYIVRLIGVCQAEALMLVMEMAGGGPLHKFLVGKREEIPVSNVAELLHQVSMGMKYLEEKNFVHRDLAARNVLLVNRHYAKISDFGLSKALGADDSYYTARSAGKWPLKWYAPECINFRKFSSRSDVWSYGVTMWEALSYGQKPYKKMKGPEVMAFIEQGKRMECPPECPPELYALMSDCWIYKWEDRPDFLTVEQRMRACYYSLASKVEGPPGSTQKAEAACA
In short: as §1

Tie2(R849W)(h) = target: T6, Tie2(R849W)(h) (Homo sapiens, UniProt Q02763, R849W)
T6 construct: purchased Caliper Life Sciences
In short: as §1

Met(h) = target: T7, Met(h) (Homo sapiens, UniProt P08581)
T7 construct: purchased Caliper Life Sciences
In short: as §1

Tie2(h) = target: T8, Tie2(h) (Homo sapiens, UniProt Q02763)
T8 construct: purchased Caliper Life Sciences
In short: as §1

T8 sequence (Q02763 23-1124): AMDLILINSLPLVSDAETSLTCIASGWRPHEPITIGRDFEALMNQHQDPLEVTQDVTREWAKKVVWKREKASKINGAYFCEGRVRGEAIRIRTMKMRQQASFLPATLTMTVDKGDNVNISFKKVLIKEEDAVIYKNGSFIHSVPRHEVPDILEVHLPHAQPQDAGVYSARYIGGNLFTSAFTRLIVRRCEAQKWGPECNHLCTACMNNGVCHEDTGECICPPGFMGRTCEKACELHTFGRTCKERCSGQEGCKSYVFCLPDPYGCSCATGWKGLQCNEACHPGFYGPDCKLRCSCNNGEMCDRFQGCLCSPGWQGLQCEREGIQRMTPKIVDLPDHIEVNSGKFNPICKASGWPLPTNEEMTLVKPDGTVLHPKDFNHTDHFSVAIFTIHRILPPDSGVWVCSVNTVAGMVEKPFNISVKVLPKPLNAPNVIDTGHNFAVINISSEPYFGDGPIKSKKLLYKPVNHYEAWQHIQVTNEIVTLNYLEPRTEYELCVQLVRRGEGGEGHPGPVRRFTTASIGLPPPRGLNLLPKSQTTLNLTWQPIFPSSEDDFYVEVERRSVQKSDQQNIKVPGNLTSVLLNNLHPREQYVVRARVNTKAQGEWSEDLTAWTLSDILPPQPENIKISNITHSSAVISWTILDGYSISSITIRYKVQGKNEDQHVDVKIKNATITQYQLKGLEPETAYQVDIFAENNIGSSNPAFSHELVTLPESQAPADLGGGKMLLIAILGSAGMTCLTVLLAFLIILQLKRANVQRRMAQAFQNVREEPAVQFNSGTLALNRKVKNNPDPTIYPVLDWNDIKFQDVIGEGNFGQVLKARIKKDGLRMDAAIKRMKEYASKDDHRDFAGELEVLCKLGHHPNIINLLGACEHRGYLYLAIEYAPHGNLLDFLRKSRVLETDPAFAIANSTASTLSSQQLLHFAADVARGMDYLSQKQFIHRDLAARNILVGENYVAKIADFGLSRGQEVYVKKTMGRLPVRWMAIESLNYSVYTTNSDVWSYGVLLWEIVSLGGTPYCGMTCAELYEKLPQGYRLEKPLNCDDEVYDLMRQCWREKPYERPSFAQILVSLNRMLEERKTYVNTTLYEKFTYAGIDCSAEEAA
T7 sequence (P08581 25-1390): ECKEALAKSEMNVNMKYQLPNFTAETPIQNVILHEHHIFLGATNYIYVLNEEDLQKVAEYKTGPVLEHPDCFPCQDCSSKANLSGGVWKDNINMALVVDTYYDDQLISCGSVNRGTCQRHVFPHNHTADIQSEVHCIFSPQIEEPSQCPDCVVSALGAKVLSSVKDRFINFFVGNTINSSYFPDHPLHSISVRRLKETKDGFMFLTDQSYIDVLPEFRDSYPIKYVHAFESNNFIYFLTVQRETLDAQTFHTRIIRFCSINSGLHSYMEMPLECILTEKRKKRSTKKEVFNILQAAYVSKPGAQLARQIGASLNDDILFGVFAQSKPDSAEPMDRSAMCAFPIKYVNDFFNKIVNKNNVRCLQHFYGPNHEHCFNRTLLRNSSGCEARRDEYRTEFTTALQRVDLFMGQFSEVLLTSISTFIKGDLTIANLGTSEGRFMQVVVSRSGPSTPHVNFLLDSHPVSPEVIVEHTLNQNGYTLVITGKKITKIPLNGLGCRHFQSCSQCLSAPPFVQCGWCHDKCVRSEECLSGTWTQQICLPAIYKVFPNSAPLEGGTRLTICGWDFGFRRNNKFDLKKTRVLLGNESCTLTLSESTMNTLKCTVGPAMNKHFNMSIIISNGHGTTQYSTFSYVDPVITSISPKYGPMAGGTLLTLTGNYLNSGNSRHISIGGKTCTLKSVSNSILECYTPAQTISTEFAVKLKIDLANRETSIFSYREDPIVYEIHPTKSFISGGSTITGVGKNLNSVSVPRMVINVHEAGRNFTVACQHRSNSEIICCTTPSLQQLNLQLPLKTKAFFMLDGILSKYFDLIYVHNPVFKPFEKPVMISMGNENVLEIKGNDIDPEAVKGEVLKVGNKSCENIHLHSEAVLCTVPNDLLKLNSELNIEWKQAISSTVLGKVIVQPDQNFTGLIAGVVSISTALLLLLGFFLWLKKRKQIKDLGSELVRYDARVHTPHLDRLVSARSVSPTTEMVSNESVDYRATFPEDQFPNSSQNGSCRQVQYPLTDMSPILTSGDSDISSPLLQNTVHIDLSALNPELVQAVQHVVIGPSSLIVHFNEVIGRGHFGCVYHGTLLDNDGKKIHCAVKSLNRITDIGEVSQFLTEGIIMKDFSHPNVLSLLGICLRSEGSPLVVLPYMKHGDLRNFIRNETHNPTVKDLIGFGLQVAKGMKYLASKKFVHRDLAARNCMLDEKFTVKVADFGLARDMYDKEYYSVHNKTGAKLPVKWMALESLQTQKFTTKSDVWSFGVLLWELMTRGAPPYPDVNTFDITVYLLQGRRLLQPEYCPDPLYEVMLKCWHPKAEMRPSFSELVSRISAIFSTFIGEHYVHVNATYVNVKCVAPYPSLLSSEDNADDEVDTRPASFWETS
T1 sequence (Q16620 32-822): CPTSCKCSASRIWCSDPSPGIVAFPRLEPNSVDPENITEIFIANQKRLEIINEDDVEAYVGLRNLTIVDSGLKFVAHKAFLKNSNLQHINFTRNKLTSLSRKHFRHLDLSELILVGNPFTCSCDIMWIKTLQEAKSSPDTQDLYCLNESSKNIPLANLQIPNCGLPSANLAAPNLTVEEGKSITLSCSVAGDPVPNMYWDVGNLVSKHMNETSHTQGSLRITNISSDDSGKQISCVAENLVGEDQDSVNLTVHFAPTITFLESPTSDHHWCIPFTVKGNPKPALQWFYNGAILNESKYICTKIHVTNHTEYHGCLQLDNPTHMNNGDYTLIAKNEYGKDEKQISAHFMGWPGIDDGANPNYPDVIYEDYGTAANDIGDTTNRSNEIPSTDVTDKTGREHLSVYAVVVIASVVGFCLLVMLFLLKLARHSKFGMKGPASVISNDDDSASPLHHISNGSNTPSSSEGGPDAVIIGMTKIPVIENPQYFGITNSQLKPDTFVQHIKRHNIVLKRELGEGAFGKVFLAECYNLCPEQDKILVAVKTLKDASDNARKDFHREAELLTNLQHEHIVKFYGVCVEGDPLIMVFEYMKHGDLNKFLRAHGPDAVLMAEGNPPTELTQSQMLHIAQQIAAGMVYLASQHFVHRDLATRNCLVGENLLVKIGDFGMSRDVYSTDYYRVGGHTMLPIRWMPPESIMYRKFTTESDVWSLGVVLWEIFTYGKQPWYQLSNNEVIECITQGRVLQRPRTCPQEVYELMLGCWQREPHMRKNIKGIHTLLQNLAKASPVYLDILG
T6 sequence (Q02763 23-1124 R849W): as the sequence (Q02763 23-1124) above, with R827W counted along it
T2 sequence (O43293 whole entry): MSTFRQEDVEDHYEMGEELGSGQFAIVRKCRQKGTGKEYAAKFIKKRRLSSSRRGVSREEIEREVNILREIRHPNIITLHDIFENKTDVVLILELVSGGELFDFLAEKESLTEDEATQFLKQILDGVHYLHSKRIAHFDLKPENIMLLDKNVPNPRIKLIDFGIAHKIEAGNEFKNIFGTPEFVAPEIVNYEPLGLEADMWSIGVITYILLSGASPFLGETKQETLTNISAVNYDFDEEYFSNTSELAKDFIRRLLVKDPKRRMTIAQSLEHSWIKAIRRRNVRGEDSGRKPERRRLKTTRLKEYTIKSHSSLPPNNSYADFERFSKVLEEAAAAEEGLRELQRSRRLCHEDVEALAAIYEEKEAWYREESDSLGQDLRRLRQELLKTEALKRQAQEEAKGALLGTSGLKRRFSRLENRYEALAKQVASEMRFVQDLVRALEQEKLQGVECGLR

SMILES	% inhibition TrkB(h) (TrkB(h); 1 μM)	% inhibition ZIPK(h) (ZIPK(h); 1 μM)	% inhibition CDK2/cyclinE(h) (CDK2/cyclinE(h); 1 μM)	% inhibition Aurora-A(h) (Aurora-A(h); 1 μM)	% inhibition ZAP-70(h) (ZAP-70(h); 1 μM)	% inhibition Tie2(R849W)(h) (Tie2(R849W)(h); 1 μM)	% inhibition Met(h) (Met(h); 1 μM)	% inhibition Tie2(h) (Tie2(h); 1 μM)	% inhibition TrkB(h) (TrkB(h); 10 μM)	% inhibition ZIPK(h) (ZIPK(h); 10 μM)	% inhibition CDK2/cyclinE(h) (CDK2/cyclinE(h); 10 μM)	% inhibition Aurora-A(h) (Aurora-A(h); 10 μM)	% inhibition ZAP-70(h) (ZAP-70(h); 10 μM)	% inhibition Tie2(R849W)(h) (Tie2(R849W)(h); 10 μM)	% inhibition Met(h) (Met(h); 10 μM)	% inhibition Tie2(h) (Tie2(h); 10 μM)
CC[C@@H]1C[C@@H]2CCCOc3cccc(c3)Nc3ncc(F)c(n3)N[C@H]2[C@H]1C(N)=O (single isomer, unassigned) [Example 5]	85%	110%	109%	7%	122%	92%	114%	104%								
O=C(O)[C@H]1[C@H]2C[C@H]3[C@H]1Nc1nc(ncc1F)Nc1cccc(c1)OCCS[C@@H]3C2 [Example 21]									18%	86%	89%	2%	94%	35%	30%	33%
CN1CCN(c2ccc3cc2OCCS[C@@H]2C[C@@H]4C[C@H]2[C@@H](Nc2nc(ncc2F)N3)[C@H]4C(N)=O)CC1 [Example 22]	14%	95%	133%	5%		57%	46%	46%								
NC(=O)[C@H]1[C@H]2C[C@H]3[C@H]1Nc1nc(ncc1F)Nc1cccc(c1)CSS[C@@H]3C2 [Example 10]	1%	118%	23%	1%	118%	41%	41%	101%								
C=C[C@@H]1C[C@@H]2/C=C/COc3cccc(c3)Nc3ncc(F)c(n3)N[C@H]2[C@H]1C(N)=O (single isomer, unassigned) [Example 3]	83%	118%	114%	11%	109%	93%	115%	99%								
NC(=O)[C@H]1[C@H]2C[C@H]3[C@H]1Nc1nc(ncc1F)Nc1cccc(c1)OCCS[C@@H]3C2 [Example 20]	5%	93%	69%	4%	122%	14%	60%	8%								
CC[C@@H]1C[C@@H]2/C=C\COc3cccc(c3)Nc3ncc(F)c(n3)N[C@H]2[C@H]1C(N)=O (single isomer, unassigned) [Example 6]	90%	112%	107%	3%	125%	91%	122%	119%								

Other lines, results leading:

% inhibition TrkB(h) (TrkB(h); 1 μM)	% inhibition ZIPK(h) (ZIPK(h); 1 μM)	% inhibition CDK2/cyclinE(h) (CDK2/cyclinE(h); 1 μM)	% inhibition Aurora-A(h) (Aurora-A(h); 1 μM)	% inhibition ZAP-70(h) (ZAP-70(h); 1 μM)	% inhibition Tie2(R849W)(h) (Tie2(R849W)(h); 1 μM)	% inhibition Met(h) (Met(h); 1 μM)	% inhibition Tie2(h) (Tie2(h); 1 μM)	% inhibition TrkB(h) (TrkB(h); 10 μM)	% inhibition ZIPK(h) (ZIPK(h); 10 μM)	% inhibition CDK2/cyclinE(h) (CDK2/cyclinE(h); 10 μM)	% inhibition Aurora-A(h) (Aurora-A(h); 10 μM)	% inhibition ZAP-70(h) (ZAP-70(h); 10 μM)	% inhibition Tie2(R849W)(h) (Tie2(R849W)(h); 10 μM)	% inhibition Met(h) (Met(h); 10 μM)	% inhibition Tie2(h) (Tie2(h); 10 μM)	SMILES
1%	109%	100%	2%	112%	28%	63%	8%									CN1CCN(c2ccc3cc2NC(=O)CS[C@@H]2C[C@@H]4C[C@H]2[C@@H](Nc2nc(ncc2F)N3)[C@H]4C(N)=O)CC1 [Example 24]
3%	106%	15%	0%	112%	26%	9%	44%									N#Cc1ccc2cc1NC(=O)CS[C@@H]1C[C@@H]3C[C@H]1[C@@H](Nc1nc(ncc1F)N2)[C@H]3C(N)=O [Example 26]
32%	84%	92%	95%	124%	103%	125%	91%									NC(=O)[C@H]1[C@H]2C[C@H]3[C@H]1Nc1nc(ncc1F)Nc1cccc(c1)C(=O)CS[C@@H]3C2 [Example 11]
5%	97%	60%	1%	125%	17%	69%	2%									NC(=O)[C@H]1[C@H]2C[C@H]3[C@H]1Nc1nc(ncc1F)Nc1cccc(c1)NC(=O)CS[C@@H]3C2 [Example 27]
